Consider 2 compounds from paper PMC8765437, “GSK3640254 Is a Novel HIV-1 Maturation Inhibitor with an Optimized Virology Profile” (Antimicrobial Agents and Chemotherapy, 2022).

In general, EC50 refers to the concentration needed to bring the measured effect to its halfway point. A word on the EC90: it is the concentration needed for an effect of 90%. Broadly, the fraction unbound is the share of the substance not bound to proteins or other matrix. Low values mean extensive binding, high ones weak binding.

SMILES strings stand for the structures.

Data set [1] concerns NLRepRlucP373S-based viruses. Description: microbe, parasite or virus in culture. Type of data set: cell-based, HIV-1. The following applies: for EC50 / EC90: 10% FBS + 40% HS + 27 mg/mL of HSA.
Data set [2] is described as follows: Human serum protein binding, ultracentrifugation assay. Type of data set: in vitro ADME.
The nature of data set [3]: Cytotoxicity in MT-2 cells (MTS, 4-day incubation). Type of data set: cell-based. The following applies: human, read-out: half-maximal cytotoxic concentration (CC50). The method, then: The assay was performed in a phenol red-free medium at an initial cell density of 10,000 per well in a 96-well plate format. Cell viability was determined using a redox dye assay [3-(4,5-dimethylthiazol-2-yl)-5-(3-carboxymethoxyphenyl)-2-(4-sulfophenyl)-2H-tetrazolium, inner salt (MTS); Promega, Madison, WI] according to the manufacturer’s protocol. Half-maximal cytotoxic concentration values were calculated by fitting to a 4-parameter logistic formula y = A + {[B − A]/1 + [(C/x)^d]}, where A and B are minimal and maximal percent inhibition, respectively, C is the EC50, d is the Hill slope, and x represents compound concentrations.

Data set [4] deals with p25 cleavage in HIV-1 Gag VLPs. Briefly: Gag p25 cleavage assay (delipidated VLPs, HIV-1 protease, LC-MS). Type of data set: biochemical. The following applies: WT and ΔV370 VLPs; 3 μM compound. The method, then:
(§1) Virus-like particles of 3 genotypes were constructed and tested. In addition to WT VLP, a VLP with V370 deleted (ΔV370; a genotype characteristic of subtype C viruses) and one with the known resistance substitution A364V were analyzed. […] A364V is a substitution adjacent to the p25/p24 cleavage site (L363/A364), and in this assay (Fig. 3C), neither MI inhibited production of p24 in the presence of HIV-1 protease.
(§2) As previously described ([22]), VLPs (∼100 ng) were diluted (1:10) in 10 μL of VLP buffer (50 mM MES [pH 6.0], 100 mM NaCl, 2 mM EDTA, and 2 mM dithiothreitol) supplemented with 0.06% Triton X-100 and incubated at room temperature for 10 to 30 min to remove lipid bilayers. […] Samples (1 μL) were taken at 0-, 0.5-, 2-, and 4-h time points and underwent trypsin digestion. […] Peptide samples were then analyzed by liquid chromatography with mass spectrometry using a nanoAcquity ultraperformance liquid chromatography system (Waters Corporation, Milford, MA) interfaced with an LTQ XL Orbitrap mass spectrometer (Thermo Fisher Scientific, Waltham, MA). […]
(§3) Signals for SP1 peptides were normalized to an internal protease fragment at the C-terminal end of Gag, and data were analyzed using Thermo Xcalibur processing software 3.0.63 and Thermo Xcalibur Quanbrowser software 3.0.63 (Thermo Fisher Scientific) as described previously ([23]).

The test system of data set [5] is T1, p25 cleavage in HIV-1 Gag VLPs.
T1 construct: made in house
The description is as above. Type of data set: biochemical. To be noted: A364V VLP; 3 μM compound. The method, then: as §1, §2, §3

The test system of data set [6] is NL4-3P373S viruses (WT and V370A). Description: Resistance selection by serial passage in increasing GSK’254 concentrations. The class given is cell-based, HIV-1. To be noted: starting concentration 2 nM GSK’254.
Protocol: NL4-3GagP373S (WT) and the SDM NL4-3 GagP373SV370A (V370A) were used to start the selections. These variants were selected as parent virus based on common WT and V370A expression in HIV-1 subtypes (47% WT and ∼36% V370A as indicated by the LANL HIV sequence database (https://www.hiv.lanl.gov/content/index). Each selection was performed in triplicate, starting with 2 × 10^6 MT-2 cells infected with each virus at an MOI of 0.005 (50% tissue culture infectious dose determined by CPE and cultured in 2 × 10^5 cells/mL in compound-containing medium). Each passage was terminated at ∼100% CPE. To passage virus, the cultures were centrifuged, and 25 μL of viral supernatants was transferred into 10 mL of a fresh cell culture in the presence of a 2-fold-increased compound concentration.
The conditions of data set [7]: in vivo, cited from earlier work.
Another data set has as its system HIV-1. Set-up: method as in PMID 30352054. To be noted: in combination with emtricitabine and tenofovir disoproxil fumarate; cited from earlier work.
Setting [8] is: Human immunodeficiency virus 1, HS27, V370A.
[9] abbreviates: Human immunodeficiency virus 1, HS27, Wild type.
[10] abbreviates: Human immunodeficiency virus 1, HS27, ΔV370.

With `C=C(C)[C@@H]1CC[C@]2(NCCN3CCS(=O)(=O)CC3)CC[C@]3(C)[C@H](CC[C@@H]4[C@@]5(C)CC=C(C6=CC[C@@](CF)(C(=O)O)CC6)C(C)(C)[C@@H]5CC[C@]43C)[C@@H]12` [GSK’254], the EC50 amounted to 9.1 nM in data set [1] (setting [8]), 12.3 nM in data set [1] (setting [9]) and 38.2 nM in data set [1] (setting [10]). Besides, the EC90 worked out at 42.2 nM in data set [1] (setting [8]), 26.1 nM in data set [1] (setting [9]) and 195 nM in data set [1] (setting [10]). The “average potency decrease in human serum” value in data set [1] (average of WT, V370A and ΔV370 viruses) turned out to be 7.9 fold. The compound further showed a fraction unbound in data set [2] of 0.14. In data set [3], the CC50 at 4 days stood at 13000 ± 6000 nM. For the same compound, the “inhibition of p25 cleavage” value in data set [4] is reported as “significantly better inhibition of p25 cleavage than GSK’795”; in data set [5], “failed to impact cleavage”. Moreover, the “average time until sufficient viral titer to permit passage 1” value in data set [6] came to 24 days. For the same compound, the safety and tolerability entry in data set [7] (po) was “acceptable safety and tolerability”. For the same compound, in data set [7], the gastrointestinal intolerability result is recorded as “only mild gastrointestinal intolerability”.
On to `C=C(C)[C@@H]1CC[C@]2(NCCN3CCS(=O)(=O)CC3)CC[C@]3(C)[C@H](CC[C@@H]4[C@@]5(C)CC=C(c6ccc(C(=O)O)cc6)C(C)(C)[C@@H]5CC[C@]43C)[C@@H]12` [GSK’795, reference compound], for which, in the data set on HIV-1, the gastrointestinal adverse events entry was “a number of gastrointestinal adverse events”.
